This is an account of results in patent US5192766A, “N-acryloylpiperazine derivatives, their preparation and their use as PAF antagonists” (Sankyo Company, Limited, priority 1989, dated 1993).

One experiment has as its system PAF-induced hypotension. The experiment can be described thus: Inhibition of PAF-induced hypotension. In kind it is in vivo, Wistar-Imamichi rats. The conditions noted are these: Rattus norvegicus, iv, 1 min; anesthetized rats; l-C16:0 PAF 10 ng/kg i.v.; test compound i.v. cumulatively, 1 min before PAF; read-out: Inhibitory effect ID50. As to the method: Inhibition of PAF-induced hypotension
The test animals used were Wistar-Imamichi rats, each weighing from 350 to 450 g, anesthetized with Inactin (90 mg/kd, intraperitoneally).
Blood pressure was continuously measured throughout the experiment through a cannula inserted into the femoral artery. Each drug sample to be tested was intravenously injected through a cannula inserted into the femoral vein.
At first, l-C16:0 PAF was injected intravenously in amounts of 10 ng/kg at each injection at intervals of 5 minutes until the degree of the hypotensive response became constant. Then, each drug sample to be treated was intravenously injected. After one minute, the same dose of PAF was administered again. The drug sample was cumulatively administered. From its inhibition rate against the PAF-induced hypotensive effect, the 50% inhibitive dose (ID50) was determined, and is regarded as an index of PAF-antagonist activity. For administration, the PAF was dissolved in physiological saline solution containing 0.25% w/v of bovine serum albumin (BSA). The compounds under test were dissolved in dimethylformamide for use.
CV-3988 is disclosed in U.S. Pat. No. 4,408,052, and is structurally related to PAF itself.
In this Table, the compounds of the invention are identified by the number of the foregoing Example in which they were prepared.

In experiment [1] the test system is blood platelet (PAF-induced aggregation). Nature of the experiment: Inhibitory effect in vitro against PAF-induced blood platelet aggregation. In kind it is cell-based. As to conditions: Oryctolagus cuniculus, 5 min; rabbit platelet rich plasma; l-C16:0 PAF final 10^-8 ~3×10^-8 M; 5 min observation. Here is the method: Inhibitory effect in vitro against PAF-induced blood platelet aggregation
Blood samples were drawn from a rabbit and one part by volume of each sample was immediately mixed with 1/9 part of a 3.8% w/v aqueous solution of sodium citrate. The samples were centrifuged at 150×G at room temperature for 15 minutes to obtain a platelet rich plasma (PRP) fraction from the upper layer. The remains were further centrifuged at 1,000×G for 15 minutes to obtain a platelet poor plasma (PPP) fraction from the upper layer. The PRP and PPP fractions were mixed appropriately, to obtain a sample in which the final count of blood platelets was adjusted to be 6×10^5 per ul. According to the method reported by Born et al. [G. V. R. Born et al.: J. Physiol. 62, 67-68 (1962)], blood platelet aggregation was determined by an increase in light transmission measured using an aggregometer. 3 ul of a solution of the test compound in dimethyl sulfoxide were added to 272 ul of PRP, and, after 1 minute, 25 ul of a physiological saline solution containing l-c16:0 PAF (at a final concentration of 10^-8 ~3×10^-8 M) were added. […] At the end of this value and the value of PAF-induced aggregation which was observed when dimethyl sulfoxide only was used without the addition of any test compound. IC50 values were calculated from the dose-response curve.

`COc1cc(C(=O)N2CCN(C(=O)C=C(c3ccc(Cl)cc3)c3ccc(Cl)cc3)CC2)cc(OC)c1OC` [Example 3, 1-[3,3-Bis(4-chlorophenyl)acryloyl]-4-(3,4,5-trimethoxybenzoyl)piperazine]: the ED50 in the experiment on PAF-induced hypotension was determined as 0.048 mg/kg. For the same compound, in experiment [1], the IC50 – broadly, the point on the concentration scale where inhibition reaches its midpoint – was determined as 220 nM.
For `COc1cc(C(=O)N2CCN(C(=O)C=C(c3cccs3)c3cccs3)CC2)cc(OC)c1OC` [Example 4, 1-[3,3-Bis(2-thienyl)acryloyl]-4-(3,4,5-trimethoxybenzoyl)piperazine], in the experiment on PAF-induced hypotension, the ED50 worked out at 0.074 mg/kg.
The same measure, in the same setting: the same measure for `COc1ccc(/C(=C\C(=O)N2CCN(C(=O)c3cc(OC)c(OC)c(OC)c3)CC2)c2ccccc2)cc1OC` [Example 8, 1-[(Z)-3-(3,4-Dimethoxyphenyl)cinnamoyl]-4-(3,4,5-trimethoxybenzoyl)piperazine]: 0.058 mg/kg; for `COc1ccc(/C(=C\C(=O)N2CCN(C(=O)c3cc(OC)c(OC)c(OC)c3)CC2)c2ccc(Cl)cc2)cc1OC` [Example 16, 1-[(Z)-3-(4-Chlorophenyl)-3-(3,4-dimethoxyphenyl)acryloyl]-4-(3,4,5-trimethoxybenzoyl)piperazine]: 0.074 mg/kg.
As for `COc1ccc(/C(=C/C(=O)N2CCN(C(=O)c3cc(OC)c(OC)c(OC)c3)CC2)c2cccc(Cl)c2)cc1OC` [Example 17, 1-[(Z)-3-(3-Chlorophenyl)-3-(3,4-dimethoxyphenyl)acryloyl]-4-(3,4,5-trimethoxybenzoyl)piperazine], the ED50 with PAF-induced hypotension was found to be 0.0083 mg/kg. The same compound showed an IC50 in experiment [1] of 63 nM.
For the compound `COc1ccc(/C(=C\C(=O)N2CCN(C(=O)c3cc(OC)c(OC)c(OC)c3)CC2)c2cccc(Cl)c2)cc1OC` [Example 18, 1-[(E)-3-(3-Chlorophenyl)-3-(3,4-dimethoxyphenyl)acryloyl]-4-(3,4,5-trimethoxybenzoyl)piperazine], in the experiment with PAF-induced hypotension, the ED50 amounted to 0.026 mg/kg.
For the compound `COc1cc(C(=O)N2CCN(C(=O)C=C(c3ccc(F)cc3)c3ccc(F)cc3)CC2)cc(OC)c1OC` [Example 25, 1[Bis(4-fluorophenyl)acryloyl]-4-(3,4,5-trimethoxybenzoyl)piperazine], the ED50 with PAF-induced hypotension worked out at 0.052 mg/kg.
Turning to `COc1ccc(C(=CC(=O)N2CCN(C(=O)c3cc(OC)c(OC)c(OC)c3)CC2)c2ccc(OC)c(OC)c2)cc1OC` [Example 28, 1-[Bis(3,4-dimethoxyphenyl)acryloyl]-4-(3,4,5-trimethoxybenzoyl)piperazine], the ED50 in the experiment with PAF-induced hypotension stood at 0.039 mg/kg. Further, the IC50 in experiment [1] was found to be 230 nM.
Regarding `COc1ccc(/C(=C\C(=O)N2CCN(C(=O)c3cc(OC)c(OC)c(OC)c3)CC2)c2ccc(OC)c(OC)c2)cc1` [Example 29, 1-[(E)-3-(3,4-Dimethoxyphenyl)-3-(4-methoxyphenyl)acryloyl]-4-(3,4,5-trimethoxybenzoyl)piperazine], the ED50 with PAF-induced hypotension came out at 0.048 mg/kg. The same compound returned an IC50 in experiment [1] of 180 nM.
For the compound `COc1ccc(/C(=C/C(=O)N2CCN(C(=O)c3cc(OC)c(OC)c(OC)c3)CC2)c2ccc(OC)c(OC)c2)cc1` [Example 30, 1-[(Z)-3-(3,4-Dimethoxyphenyl)-3-(4-methoxyphenyl)acryloyl]-4-(3,4,5-trimethoxybenzoyl)piperazine], in the experiment with PAF-induced hypotension, the ED50 was 0.044 mg/kg. This compound also yielded an IC50 in experiment [1] of 150 nM.
Take `COc1ccc(/C(=C/C(=O)N2CCN(C(=O)c3cc(OC)c(OC)c(OC)c3)CC2)c2cccc(C(F)(F)F)c2)cc1OC` [Example 33, 1-[(E)-3-(3,4-Dimethoxyphenyl)-3-(3-trifluoromethylphenyl)acryloyl]-4-(3,4,5-trimethoxybenzoyl)piperazine]: the ED50 in the experiment with PAF-induced hypotension stood at 0.0078 mg/kg. In experiment [1], 43 nM corresponded to half-maximal inhibition (IC50).
As to `COc1ccc(/C(=C\C(=O)N2CCN(C(=O)c3cc(OC)c(OC)c(OC)c3)CC2)c2cccc(C(F)(F)F)c2)cc1OC` [Example 34, 1-[(Z)-3-(3,4-Dimethoxyphenyl)-3-(3-trifluoromethylphenyl)acryloyl]-4-(3,4,5-trimethoxybenzoyl)piperazine], the ED50 in the experiment with PAF-induced hypotension amounted to 0.021 mg/kg.
In the case of `COc1ccc(/C(=C/C(=O)N2CCN(C(=O)c3cc(OC)c(OC)c(OC)c3)CC2)c2ccc(C)cc2)cc1OC` [Example 35, 1-[(E)-3-(3,4-Dimethoxyphenyl)-3-(4-methylphenyl)acryloyl]-4-(3,4,5-trimethoxybenzoyl)piperazine], the ED50 with PAF-induced hypotension stood at 0.012 mg/kg. This compound also yielded a half-inhibitory concentration (IC50) in experiment [1] of 110 nM.
On to `COc1ccc(/C(=C\C(=O)N2CCN(C(=O)c3cc(OC)c(OC)c(OC)c3)CC2)c2ccc(C)cc2)cc1OC` [Example 36, 1-[(Z)-3-(3,4-Dimethoxyphenyl)-3-(4-methylphenyl)acryloyl]-4-(3,4,5-trimethoxybenzoyl)piperazine], for which the ED50 in the experiment with PAF-induced hypotension is 0.039 mg/kg. It took 220 nM to reach half-maximal inhibition in experiment [1] (IC50).
Consider `COc1cc(C(=O)N2CCN(C(=O)/C=C(/c3cccc(C)c3)c3ccc(Cl)c(Cl)c3)CC2)cc(OC)c1OC` [Example 37, 1-[(Z)-3-(3,4-Dichlorophenyl)-3-(3-methylphenyl)acryloyl]-4-(3,4,5-trimethoxybenzoyl)piperazine], for which, in experiment [1], the 50% inhibitory concentration (IC50) amounted to 110 nM.
As for `COc1ccc(/C(=C/C(=O)N2CCN(C(=O)c3cc(OC)c(OC)c(OC)c3)CC2)c2cccc(C)c2)cc1OC` [Example 39, 1-[(E)-3-(3,4-Dimethoxyphenyl)-3-(3-methylphenyl)acryloyl]-4-(3,4,5-trimethoxybenzoyl)piperazine], the ED50 with PAF-induced hypotension was 0.008 mg/kg.
Consider `COc1ccc(/C(=C\C(=O)N2CCN(C(=O)c3cc(OC)c(OC)c(OC)c3)CC2)c2cccc(C)c2)cc1OC` [Example 40, 1-[(Z)-3-(3,4-Dimethoxyphenyl)-3-(3-methylphenyl)acryloyl]-4-(3,4,5-trimethoxybenzoyl)piperazine], for which the IC50 in experiment [1] came out at 110 nM.
Regarding `COc1cc(C(=O)N2CCN(C(=O)/C=C(\c3ccccc3)c3ccc4ccccc4c3)CC2)cc(OC)c1OC` [Example 48, 1-[(E)-3-(2-Naphthyl)-3-phenylacryloyl]-4-(3,4,5-trimethoxybenzoyl)piperazine], the ED50 with PAF-induced hypotension is 0.012 mg/kg.
In the case of `CCc1ccc(/C(=C/C(=O)N2CCN(C(=O)c3cc(OC)c(OC)c(OC)c3)CC2)c2ccc(Cl)c(Cl)c2)cc1` [Example 52, 1-[(Z)-3-(3,4-Dichlorphenyl)-3-(4-ethylphenyl)acryloyl]-4-(3,4,5-trimethoxybenzoyl)piperazine], the ED50 in the experiment on PAF-induced hypotension was found to be 0.0084 mg/kg. In addition, the concentration for half-maximal inhibition (IC50) in experiment [1] is 30 nM.
On the same counts, the results for `CCCOc1ccc(/C(=C/C(=O)N2CCN(C(=O)c3cc(OC)c(OC)c(OC)c3)CC2)c2ccccc2)cc1` [Example 53, 1-[(E)-3-Phenyl-3-(4-propoxyphenyl)acryloyl]-4-(3,4,5-trimethoxybenzoyl)piperazine] are 0.0074 mg/kg and 52 nM.
On the same counts, the results for `CCCOc1cccc(/C(=C/C(=O)N2CCN(C(=O)c3cc(OC)c(OC)c(OC)c3)CC2)c2cccc(Cl)c2)c1` [Example 70, 1-[(Z)-3-(3-Propoxyphenyl)-3-(3-chlorophenyl)acryloyl]-4-(3,4,5-trimethoxybenzoyl)piperazine] are 0.0033 mg/kg and 30 nM.
The like results for `CCCOc1ccc(/C(=C/C(=O)N2CCN(C(=O)c3cc(OC)c(OC)c(OC)c3)CC2)c2cccc(Cl)c2)cc1` [Example 71, 1-[(Z)-3-(4-Propoxyphenyl)-3-(3-chlorophenyl)acryloyl]-4-(3,4,5-trimethoxybenzoyl)piperazine] were, in that order, 0.0074 mg/kg and 38 nM.
Take `COc1ccc(/C(=C/C(=O)N2CCN(C(=O)c3cc(OC)c(OC)c(OC)c3)CC2)c2c(Cl)cccc2Cl)cc1` [Example 79, 1-[(Z)-3-(4-Methoxyphenyl)-3-(2,6-dichlorophenyl)acryloyl]-4-(3,4,5-trimethoxybenzoyl)piperazine]: the ED50 in the experiment with PAF-induced hypotension was 0.0066 mg/kg.
Regarding `CCc1ccc(/C(=C/C(=O)N2CCN(C(=O)c3cc(OC)c(OC)c(OC)c3)CC2)c2cc(Cl)cc(Cl)c2)cc1` [Example 86, 1-[(Z)-3-(4-Ethylphenyl)-3-(3,5-dichlorophenyl)acryloyl]-4-(3,4,5-trimethoxybenzoyl)piperazine], the ED50 in the experiment with PAF-induced hypotension turned out to be 0.015 mg/kg.
Take `CCOc1ccc(/C(=C/C(=O)N2CCN(C(=O)c3cc(OC)c(OC)c(OC)c3)CC2)c2cccc(F)c2)cc1` [Example 88, 1-[(Z)-3-(4-Ethoxyphenyl)-3-(3-fluorophenyl)acryloyl]-4-(3,4,5-trimethoxybenzoyl)piperazine]: in the experiment on PAF-induced hypotension, the ED50 worked out at 0.092 mg/kg.
